Assay results taken from patent US20100267561A1, “HERBICIDAL PYRIDAZINONE DERIVATIVES” (priority 2007, published 2010).

Assays:
Experiment in all cases: Test B postemergence plant response
Type in all cases: in vivo
[1] = tested on: canarygrass (Phalaris minor); conditions: for Canarygrass plant response rating: postemergence, 0-100 scale; for Plant response rating, Canarygrass: Postemergence
Description: (§1) At the same time, plants selected from these crop and weed species and also winter barley (Hordeum vulgare), canarygrass (Phalaris minor), chickweed (Stellaria media) and windgrass (Apera spica-venti) were treated with postemergence applications of some of the test chemicals formulated in the same manner. Plants ranged in height from 2 to 18 cm (1- to 4-leaf stage) for postemergence treatments.
(§2) Plant species in the flooded paddy test consisted of rice (Oryza sativa), umbrella sedge (Cyperus difformis), ducksalad (Heteranthera limosa) and barnyardgrass (Echinochloa crus-galli) grown to the 2-leaf stage for testing. At time of treatment, test pots were flooded to 3 cm above the soil surface, treated by application of test compounds directly to the paddy water, and then maintained at that water depth for the duration of the test. Treated plants and controls were maintained in a greenhouse for 13 to 15 days, after which time all species were compared to controls and visually evaluated. Plant response ratings, summarized in Table B, are based on a scale of 0 to 100 where 0 is no effect and 100 is complete control. A dash (-) response means no test result.

[2] = tested on: chickweed (Stellaria media); conditions: for Chickweed plant response rating: postemergence, 0-100 scale; for Plant response rating, Chickweed: Postemergence
Description: as §1, §2

[3] = tested on: windgrass (Apera spica-venti); conditions: for Windgrass plant response rating: postemergence, 0-100 scale; for Plant response rating, Windgrass: Postemergence
Description: as §1, §2

[4] = tested on: winter barley (Hordeum vulgare); conditions: for Barley plant response rating: postemergence; for Plant response rating, Barley: Postemergence
Description: as §1, §2

[5] = 62 g ai/ha, scale 0 to 100, 0 no effect, 100 complete control
[6] = 16 g ai/ha, scale 0 to 100, 0 no effect, 100 complete control
[7] = 31 g ai/ha, scale 0 to 100, 0 no effect, 100 complete control
[8] = 16 g ai/ha, 0-100 scale (0 no effect, 100 complete control)

| SMILES | Canarygrass plant response rating ([1]; 8 g ai/ha) | Plant response rating, Canarygrass ([1]; 16 g ai/ha, scale 0 to 100) | Plant response rating, Canarygrass ([1]; 31 g ai/ha, scale 0 to 100) | Plant response rating, Canarygrass [1, 5] | Chickweed plant response rating ([2]; 8 g ai/ha) | Plant response rating, Chickweed ([2]; 16 g ai/ha, scale 0 to 100) | Plant response rating, Chickweed ([2]; 31 g ai/ha, scale 0 to 100) | Plant response rating, Chickweed [2, 5] | Windgrass plant response rating ([3]; 8 g ai/ha) | Plant response rating, Windgrass ([3]; 16 g ai/ha, scale 0 to 100) | Plant response rating, Windgrass ([3]; 31 g ai/ha, scale 0 to 100) | Plant response rating, Windgrass [3, 5] | Barley plant response rating ([4]; 8 g ai/ha, 0-100 scale) | Plant response rating, Barley [4, 6] | Plant response rating, Barley [4, 7] | Plant response rating, Barley [4, 5] | Windgrass plant response rating ([3]; 16 g ai/ha) | further results |
| --- | --- | --- | --- | --- | --- | --- | --- | --- | --- | --- | --- | --- | --- | --- | --- | --- | --- | --- |
| CCCC(=O)Oc1cnn(C)c(=O)c1-n1nc(-c2ccc(Cl)cc2)cc1C [Compound 56] | 50 | 85 | 90 | 95 | 0 | 0 | 0 | 0 | 0 | 0 | 20 | 20 | 0 | 40 | 50 | 75 |  |  |
| Cc1nn(C)c(=O)c(-n2nc(-c3ccc(Cl)cc3)cc2Cl)c1O [Compound 59] | 0 | 40 | 55 | 70 | 0 | 0 | 0 | 0 | 0 | 0 | 10 | 50 | 0 | 0 | 20 | 50 |  |  |
| CCc1cc(-c2ccc(Br)cc2)nn1-c1c(O)c(C)nn(C)c1=O [Compound 74] | 80 | 90 | 100 | 100 | 0 | 0 | 0 | 0 | 85 |  | 100 | 100 | 20 | 40 | 95 | 95 | 90 |  |
| CCc1cc(-c2ccc(C(F)(F)F)cc2)nn1-c1c(O)c(OC)nn(C)c1=O [Compound 66] | 40 | 90 | 95 |  | 0 | 0 | 0 | 0 | 90 |  | 100 | 100 | 90 | 98 | 100 |  | 100 |  |
| COc1nn(C)c(=O)c(-n2nc(-c3ccc(Br)cc3)cc2C)c1O [Compound 82] | 80 |  | 100 | 100 | 0 |  | 0 | 90 | 70 |  | 100 | 100 | 90 |  | 100 | 100 | 100 | Canarygrass plant response rating ([1]; 16 g ai/ha): 95; Chickweed plant response rating ([2]; 16 g ai/ha): 0; Barley plant response rating [4, 8]: 98 |
| Cc1cc(-c2ccc(Cl)cc2)nn1-c1c(OC(=O)c2ccccc2Cl)cnn(C)c1=O [Compound 38] | 0 | 0 |  | 30 | 0 | 0 |  | 0 | 0 | 0 |  | 80 | 0 | 0 | 10 | 10 |  | Plant response rating, Canarygrass [1, 7]: 10; Plant response rating, Chickweed [2, 7]: 0 |
| CCc1c(C)c(-c2ccc(Br)cc2)nn1-c1c(O)cnn(C)c1=O [Compound 83] | 65 |  | 90 | 90 | 0 |  | 0 | 0 | 90 |  | 100 | 100 | 0 |  | 45 | 45 | 98 | Chickweed plant response rating ([2]; 16 g ai/ha): 0; Barley plant response rating [4, 8]: 0 |
| Cc1nn(C)c(=O)c(-c2nc(-c3ccc(Cl)cc3)sc2C)c1O [Compound 79, 4-[2-(4-chlorophenyl)-5-methyl-4-thiazolyl]-5-hydroxy-2,6-dimethyl-3(2H)-pyridazinone] | 10 | 55 | 85 | 95 | 0 | 0 | 0 | 0 | 0 |  | 50 | 70 | 0 | 10 | 30 | 40 | 50 |  |
| CCc1cc(-c2ccc(C(F)(F)F)cc2)nn1-c1c(OC(=O)OC(C)C)cnn(C)c1=O [Compound 12] |  | 100 |  |  |  | 0 |  |  |  | 100 |  |  |  | 80 | 95 |  |  | Plant response rating, Canarygrass [1, 7]: 100; Plant response rating, Canarygrass ([1]; 62 g ai/ha, scale 0 to 100): 100; Plant response rating, Canarygrass ([1]; 125 g ai/ha, scale 0 to 100): 100; Plant response rating, Chickweed [2, 7]: 0; Plant response rating, Chickweed ([2]; 62 g ai/ha, scale 0 to 100): 0; Plant response rating, Chickweed ([2]; 125 g ai/ha, scale 0 to 100): 0; Plant response rating, Windgrass [3, 7]: 100; Plant response rating, Windgrass ([3]; 62 g ai/ha, scale 0 to 100): 100; Plant response rating, Windgrass ([3]; 125 g ai/ha, scale 0 to 100): 100; Plant response rating, Barley ([4]; 62 g ai/ha, scale 0 to 100): 100; Plant response rating, Barley ([4]; 125 g ai/ha, scale 0 to 100): 100 |
| CCc1cc(-c2ccc(Br)cc2)nn1-c1c(O)cnn(CC(F)(F)F)c1=O [Compound 73] | 30 | 90 | 90 | 100 | 0 | 0 | 0 | 0 | 50 |  | 80 | 95 | 0 | 40 | 40 | 70 | 60 |  |
| CCCc1cc(-c2ccc(C(F)(F)F)cc2)nn1-c1c(O)cnn(C)c1=O [Compound 72] |  | 30 | 30 | 95 | 0 | 0 | 0 | 0 | 85 |  | 100 | 100 | 0 | 0 | 0 | 95 | 100 |  |
| Cn1ncc(O)c(-n2nc(-c3ccc(Cl)cc3)cc2C2CC2)c1=O [Compound 45] | 0 | 0 | 0 | 0 | 0 | 0 | 0 | 0 | 30 | 35 | 60 | 65 | 5 | 5 | 5 | 5 |  |  |
| CCCc1cc(-c2ccc(Cl)cc2)nn1-c1c(O)cnn(C)c1=O [Compound 76] | 45 | 60 | 90 | 98 | 0 | 0 | 0 | 0 | 30 |  | 80 | 90 | 0 | 0 | 5 | 25 | 80 |  |
